According to patent US20100041972A1, “APPARATUS AND METHODS” (priority 2006, published 2010):

Assays:
rat dorsal raphe = experiment: MEA recording of neuronal firing in rat dorsal raphe slice; assay type: cell-based; conditions: channels 34, 43, 48 and 57; heterogeneity noted
Procedure: Wistar rats or mice obtained from Charles River were sacrificed by cervical dislocation. The brain was rapidly removed and a block of tissue containing the relevant area was prepared. Brain tissue was glued onto a glass slide using cyanoacryalate glue (Permabond C2). The block was supported by a similar sized block of agar (3% in NaCl, 126 mM) glued immediately behind the brain block. Coronal slices (300 μm thick) of the relevant brain slice were cut from the brain using a Vibratome™ (Oxford Instruments, supplied by Intracel, Unit 4, Station Road, Shepreth, Royston. Herts. UK). The slices were transferred to artificial cerebrospinal fluid (ACSF) which contained (in mM): NaCl 126, KCl 5, NaH2PO4 1.24, CaCl2 2.4, MgCl2 1.3, NaHCO3 26, glucose 10, at pH 7.4, continuously bubbled with ‘carbogen’ (95% O2/5% CO2) and maintained at room temperature. […]
Extracelular action potentials were recorded from either isolated neurones, or several neurones per electrode. […]
All spike waveforms or LFP ‘events’ that crossed a pre-set voltage threshold (−12 and −8 pV respectively) were stored as both ‘time-stamps’ (i.e. ‘time of occurrence’), and as ‘spike cut-outs’ (i.e. digitised waveform prior to, and after threshold crossing). All experimental data were recorded directly on to hard disk, and backed up onto various means of data archiving. […]

[1] = test system: olfactory bulb mitral cells; experiment: Acute in vivo MEA recording of odour response in olfactory bulb; set-up: species or system male Wistar rats; conditions: odour at 5.42×10^−6 M in breathing air, urethane anaesthesia
From the text: Multi-electrode array recordings from olfactory bulb mitral cells (5×5 array). 1. Spontaneous population burst. 2. Control, no odour. 3. Arnyl acetate. 4. N-butanol. 5. Cineole. 6. Pinene. 7. DL-Camphor. 8. Linalool (max response). 9. Linalool “off response”. […] The results are shown as peak odour response neuronal activity maps in olfactory bulb. These records were from male Wistar rats (400 g) anaesthetized with urethane and secured in a stereotaxic unit). The NeuroZonds MEAs of the invention penetrated the left olfactory bulbs horizontally (after left enucleation). The odours were presented in the animals breathing air under the control of the normal breathing cycle (detected by thermistor probe in mask), diluted from stock in pure nitrogen. The concentrations of odourants were determined according to the relative saturation vapour pressures of the odourants at particular temperatures via a custom-built ‘olfactometer’.

Molecule	neuronal firing, effect of XE-991 after retigabine (rat dorsal raphe)	spatiotemporal dynamics of odour response [1]
O=C1c2ccccc2C(Cc2ccncc2)(Cc2ccncc2)c2ccccc21 [XE-991]	recovery of retigabine inhibition	–
pinene	–	marked “off response”
